Laboratory results from publication PMC7718273 (Scientific Reports, 2020).
Several values for one entry are separate records, joined by “and”; a condition that tells them apart may be missing. Equal values may be shown once. Read-outs that look alike come from different tables or passages of the source.

Experiments:
FAP [1] = tested on: T1, FAP; assay: In vivo study using CDAHFD mice: FAP activity at week 14; parameters: species or system C57BL/6J mice; settings: 10 and 30 mg/kg p.o. for 10 weeks, vs vehicle
T1 construct: from tissue; host or cells: mouse serum/plasma (ob/ob and C57BL/6J mice)
Description: (§1) C57BL/6J mice were fed normal chow diet (n = 5) or choline-deficient, L-amino acid-defined, high-fat diet (CDAHFD) for 4 weeks to induce NASH (n = 8–10/group). […] (a) Relative FAP activity was assessed by FRET-quench and serum FGF21 level at week 14. […] (c) Steatosis scores ranged from 0 to 3 (normal = 0, minimal = 1, moderate = 2, marked = 3) were determined. Hepatic steatosis and fibrosis (Picrosirius red stain) were analyzed in a blinded manner or by digital image analyzer. (d–e) Histological evaluations of liver tissue were performed in each group. Paraffin-embedded liver sections were stained with H&E (d) and Sirius red (e). Representative photographs of each group were presented. Images were obtained at 100x (Scale bar = 50 µm).
(§2) Male C57BL/6J mice (5 weeks of age) were fed with a CDAHFD consisting of 60% kcal fat and 0.1% methionine. […] For the CDAHFD model, compound treatments were started at the beginning of week 4 on the diet and continued until week 14. […] Liver tissue was then collected. All other measurements were done similarly as described above. Staining was performed using H&E and Picrosirius red as described previously. Areas of positive Sirius red were quantified by computer-based morphometric analysis.

[2] = Microsomal stability, rat; assay type: in vitro ADME; settings: liver microsomes, pH 7.4, rat (R), 0.5 mg/mL, NADPH, read-out: Microsomal stability (% remaining at 60 min)
Description: (§3) Aliquots were then transferred in duplicate to: (i) a final concentration plate that was immediately quenched with 23.6 ng/mL internal standard (IS, chlorpropamide) in acetonitrile (ACN) or (ii) tubes, which were centrifuged for 5 min at 4℃ (14,000 rpm). The samples were subjected to LC–MS/MS analysis on an AB Sciex 4000 Q Trap hybrid triple quadrupole linear ion-trap MS (AB Sciex, Framingham, MA) coupled to an Agilent 1200 HPLC (Agilent Tech. Santa Clara, CA) with a reverse-phase Kinetex XB-C18 column (2.1 × 100 mm, 2.6 µm; Phenomenex). Mobile phases were comprised of 0.1% formic acid (FA) in water (A) and 0.1 FA in ACN (B). Data analysis was performed using […] (Ver. 1.6.1).

serum FAP [3] = biological target: T2, serum FAP (Homo sapiens, UniProt Q12884); assay: IC50 on serum FAP, humans; assay type: biochemical
T2 construct: also found in human serum as a soluble form lacking the transmembrane domain; from tissue; host or cells: human serum
T2 sequence (Q12884 24-760 limits assumed): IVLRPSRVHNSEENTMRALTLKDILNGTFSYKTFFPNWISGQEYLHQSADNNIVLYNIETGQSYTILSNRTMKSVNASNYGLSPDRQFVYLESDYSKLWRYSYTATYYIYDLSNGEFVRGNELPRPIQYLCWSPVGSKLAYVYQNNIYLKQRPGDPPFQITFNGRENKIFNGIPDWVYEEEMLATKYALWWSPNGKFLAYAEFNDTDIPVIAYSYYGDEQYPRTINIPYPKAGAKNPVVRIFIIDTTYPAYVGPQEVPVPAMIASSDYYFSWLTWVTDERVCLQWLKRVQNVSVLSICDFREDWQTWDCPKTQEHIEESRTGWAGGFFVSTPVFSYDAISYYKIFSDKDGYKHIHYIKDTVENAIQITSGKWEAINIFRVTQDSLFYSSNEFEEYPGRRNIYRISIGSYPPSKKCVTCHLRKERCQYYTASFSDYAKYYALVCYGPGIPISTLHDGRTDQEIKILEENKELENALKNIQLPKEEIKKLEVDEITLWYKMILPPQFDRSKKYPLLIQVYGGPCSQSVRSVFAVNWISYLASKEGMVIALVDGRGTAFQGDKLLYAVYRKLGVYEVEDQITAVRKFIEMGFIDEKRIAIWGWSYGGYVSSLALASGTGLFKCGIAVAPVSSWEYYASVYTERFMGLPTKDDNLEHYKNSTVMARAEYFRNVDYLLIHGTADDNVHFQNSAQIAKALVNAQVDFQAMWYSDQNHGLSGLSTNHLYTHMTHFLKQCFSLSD

CDAHFD NASH mouse model = assay: In vivo study using CDAHFD mice (NASH model); parameters: species or system C57BL/6J mice
Description: as §1, §2

[4] = tested on: differentiated 3T3/L1 adipocytes; assay: hFGF21 signalling in differentiated 3T3/L1 adipocytes with added FAP (immunoblot); assay type: cell-based; settings: 5 µM; hFGF21 500 ng/mL pre-incubated with FAP 100 ng/mL for 2 h
Description: Treatment with hFGF21 increased p-ERK, Glut1 and adiponectin levels, which were reduced in the presence of FAP.
(a) Fully differentiated 3T3/L1 adipocytes were incubated with full-length hFGF21 at 500 ng/mL. […] Phosphorylated ERK (p-ERK), total ERK (ERK), Glut1, adiponectin and β-actin were measured by immunoblots. (b) Quantification of p-ERK, Glut1 and adiponectin was obtained with densitometric analysis, and normalized with total ERK or β-actin, respectively.
Western blots were performed as described. For protein preparation, cells or tissues were solubilized in a lysis buffer. Protein concentration was determined using a Bio-Rad Protein Assay kit (Bio-Rad, Richmond, CA). Then, 20 μg of the protein was electrophoresed by SDS-PAGE and electrotransferred to polyvinylidene fluoride membranes (Millipore, Bedford, MA). […] Antibodies were detected by horseradish peroxidase-linked secondary antibody (1:10,000; Cell Signaling Tech., 7074S), using the enhanced chemiluminescence Western Blotting Detection System (Molecular Imager Gel Doc XR System, BIO-RAD). […]

[5] = Microsomal stability, human; assay type: in vitro ADME; settings: liver microsomes, pH 7.4, 0.5 mg/mL, NADPH, read-out: Microsomal stability (% remaining at 60 min)
Description: as §3

FAP [6] = assay: In vivo study using cynomolgus monkeys: plasma FAP activity; parameters: species or system cynomolgus monkey; settings: 50 mg/kg intranasal
[7] = Pharmacokinetic study in monkeys; assay type: in vivo; settings: male, cynomolgus, cynomolgus monkey, plasma, inhaled or intranasal; for AUC(0-t): read-out: AUC(0–6 h)
Description: Six male cynomolgus monkeys (4.5–5.5 kg) were obtained from Sichuan Primed Shines Bio-tech Co., Ltd (Chengdu, Sichuan, China) and maintained at 18–26 °C, a relative humidity of 40%-70%, a minimum of 8 air changes/h, and a 12-h light/12-h dark cycle. […] Plasma sample preparations and analysis were the same as described in mice study.

[8] = Microsomal stability, dog; assay type: in vitro ADME; settings: liver microsomes, pH 7.4, dog (D), 0.5 mg/mL, NADPH, read-out: Microsomal stability (% remaining at 60 min)
Description: as §3

serum FAP [9] = biological target: serum FAP (Macaca fascicularis, UniProt A0A2K5VGH4); assay: IC50 on serum FAP, monkeys; assay type: biochemical; settings: read-out: Serum FAP IC50 (nM): Monkey
serum FAP (Macaca fascicularis, UniProt A0A2K5VGH4), sequence (A0A2K5VGH4 entry or part of it): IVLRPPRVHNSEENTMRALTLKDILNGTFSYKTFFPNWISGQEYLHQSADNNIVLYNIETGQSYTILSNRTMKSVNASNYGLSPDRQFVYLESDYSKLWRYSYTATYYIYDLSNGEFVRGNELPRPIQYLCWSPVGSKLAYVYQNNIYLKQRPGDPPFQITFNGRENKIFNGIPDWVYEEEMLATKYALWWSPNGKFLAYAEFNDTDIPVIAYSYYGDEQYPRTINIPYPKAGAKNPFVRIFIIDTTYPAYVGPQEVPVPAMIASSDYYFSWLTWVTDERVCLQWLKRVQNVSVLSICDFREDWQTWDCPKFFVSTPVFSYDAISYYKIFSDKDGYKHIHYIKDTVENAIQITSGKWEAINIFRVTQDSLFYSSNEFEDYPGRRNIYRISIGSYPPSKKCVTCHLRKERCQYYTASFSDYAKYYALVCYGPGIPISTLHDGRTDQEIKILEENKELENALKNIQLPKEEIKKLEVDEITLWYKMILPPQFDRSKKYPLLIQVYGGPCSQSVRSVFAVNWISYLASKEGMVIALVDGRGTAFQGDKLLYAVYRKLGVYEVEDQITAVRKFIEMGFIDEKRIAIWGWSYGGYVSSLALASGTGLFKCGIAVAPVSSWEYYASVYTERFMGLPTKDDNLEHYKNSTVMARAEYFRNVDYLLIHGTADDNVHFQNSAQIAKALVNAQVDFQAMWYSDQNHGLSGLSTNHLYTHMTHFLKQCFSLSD

endogenous mouse FAP = tested on: T3, endogenous mouse FAP; assay: Acute study using ob/ob mice: plasma FAP activity; assay type: in vivo; settings: single oral dose 20 or 50 mg/kg, in 1 h, maintained up to 9 h
T3 construct: from tissue; host or cells: mouse serum/plasma (ob/ob and C57BL/6J mice)

[10] = 10 and 30 mg/kg, week 14, vs vehicle

In the case of `N#Cc1ccc(Cc2nc(C(=O)NCC(=O)N3CC(F)(F)C[C@H]3C#N)cs2)cc1` [BR103354, (S)-N-(2-(2-cyano-4,4-difluoropyrrolidin-1-yl)-2-oxoethyl)-2-(4-cyanobenzyl)thiazole-4-carboxamide], the FAP activity (FAP [1]) is reported as “inhibited in a dose-dependent manner”, the remaining at 1 h, 1 µM [2] is reported as 87% and the IC50 (serum FAP [3]) is reported as 29 nM. The “liver fibrosis (Picrosirius red staining)” value (CDAHFD NASH mouse model; 10 and 30 mg/kg) was “significant reduction”, the “increase of serum FGF21 levels” value (CDAHFD NASH mouse model; 10 and 30 mg/kg p.o. for 10 weeks) was 1.5–1.9 folds and the Steatosis scores (CDAHFD NASH mouse model; 10 and 30 mg/kg, score 0 to 3) was “significant reduction”. The TG (CDAHFD NASH mouse model; [10]) was “reduced”, the “blood ALT levels” value (CDAHFD NASH mouse model; [10]) was “reduced” and the “blood AST levels” value (CDAHFD NASH mouse model; [10]) was “reduced”. The glucose levels (CDAHFD NASH mouse model; [10]) was “reduced”, the total cholesterol (CDAHFD NASH mouse model; [10]) was “reduced” and the Glut1 levels [4] was “enhanced Glut1 levels”. The p-ERK levels [4] was “restored p-ERK levels to those of normal”, the remaining at 1 h, 1 µM [5] was 95% and the “inhibition of FAP activity, maximal” value (FAP [6]; cynomolgus monkeys (n = 3), range of individual animals) was 65–83%. For the same compound, the “time of maximal effect on FAP activity and intact FGF21” value (FAP [6]; cynomolgus monkeys, 50 mg/kg) was 1 h and 2 h, the Cmax ([7]; monkey, 10 mg/kg intranasally) was 420 ng/mL and the Tmax ([7]; monkey, 10 mg/kg intranasally) was 2.3 h. For the same compound, the AUC(0-t) ([7]; monkey, 10 mg/kg intranasally) was 1200 ng·h/mL, the half-life ([7]; monkey, 10 mg/kg intranasally, read-out: T1/2 (converted)) was 1.3 h and the Cmax ([7]; monkey, 30 mg/kg intranasally) was 2000 ng/mL. It also gave a Tmax ([7]; monkey, 30 mg/kg intranasally) of 2.3 h, an AUC(0-t) ([7]; monkey, 30 mg/kg intranasally) of 6400 ng·h/mL and a half-life ([7]; monkey, 30 mg/kg intranasally, read-out: T1/2 (converted)) of 2.8 h. It also gave a half-life ([7]; monkeys, 10/30 mg/kg, read-out: half-life (T1/2), range over doses) of 1.3 to 2.8 h, a Tmax ([7]; monkeys, dose not given in the sentence (10/30 mg/kg)) of 2.3 h and a remaining at 1 h, 1 µM [8] greater than 100%. For the same compound, the IC50 (serum FAP [9]) was 27 nM and the “inhibition of plasma FAP activity” value (endogenous mouse FAP) was “more than 70%”.
